Target: oxoeicosanoid receptor 1 (OXER1) (Homo sapiens, UniProt Q8TDS5)
Assay: inhibition of forskolin-stimulated cAMP in CHO-K1 cells stably expressing human OXER1 (agonist); also displaces [3H]testosterone from DU-145 membranes
Type: cell-based

Sequence of oxoeicosanoid receptor 1 (OXER1) (Q8TDS5 whole entry): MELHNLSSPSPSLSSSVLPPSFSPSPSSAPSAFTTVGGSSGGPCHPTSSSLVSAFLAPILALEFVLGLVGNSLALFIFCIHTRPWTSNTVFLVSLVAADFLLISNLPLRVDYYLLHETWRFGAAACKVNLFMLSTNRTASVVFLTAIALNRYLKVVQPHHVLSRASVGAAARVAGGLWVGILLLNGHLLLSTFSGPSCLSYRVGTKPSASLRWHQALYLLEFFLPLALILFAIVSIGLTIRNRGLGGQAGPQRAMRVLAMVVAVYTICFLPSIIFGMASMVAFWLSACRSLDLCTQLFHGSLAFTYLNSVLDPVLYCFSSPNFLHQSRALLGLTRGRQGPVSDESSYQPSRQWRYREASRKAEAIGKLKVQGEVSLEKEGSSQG

## CCCCC/C=C\C/C=C\C/C=C\C=C\C(=O)CCCC(=O)O [5-oxoETE, 5-oxo-6E,8Z,11Z,14Z-eicosatetraenoic acid]
  IC50: ~2 nM
